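Protocol summary: plate cells (96-well), add compound at 5 concentrations, incubate 48 h, interpolate endpoints linearly. At the GI50, growth is halved.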 Active and inactive are the calls of the source. Rule as the data show it: active = GI50 up to about 1.1 µM and inactive = higher.
Columns and labels:
Test in all cases: NCI anticancer screen, dose series, 48 h
A549 = system: A549
HOP-62 = system: HOP-62
HOP-92 = system: HOP-92
Hs-578T = system: Hs-578T
IGROV-1 = system: IGROV-1
M14 = system: M14
MDA-MB-231 = system: MDA-MB-231
MDA-MB-435 = system: MDA-MB-435
NCI-H23 = system: NCI-H23
NCI-H460 = system: NCI-H460
OVCAR-3 = system: OVCAR-3
OVCAR-8 = system: OVCAR-8
SK-MEL-2 = system: SK-MEL-2
SNB-19 = system: SNB-19
SR = system: SR
TK-10 = system: TK-10
U-251 = system: U-251
SF-295 = system: SF-295
SF-539 = system: SF-539

Measured: GI50

COc1cccc(CCCNC(=O)Cc2cc(OC)c(OC)cc2CO)c1
inactive: A549 > 100 µM | HOP-62 > 100 µM | HOP-92 > 100 µM | Hs-578T > 100 µM | IGROV-1 > 100 µM | M14 > 100 µM | MDA-MB-231 > 100 µM | MDA-MB-435 > 100 µM | NCI-H23 > 100 µM | NCI-H460 > 100 µM | OVCAR-3 > 100 µM | OVCAR-8 > 100 µM | SK-MEL-2 > 100 µM | SNB-19 > 100 µM | SR > 100 µM | TK-10 > 100 µM | U-251 > 100 µM

CCOC(=O)CCC(NC(=O)Cc1ccc(Nc2nc3cc(F)c(F)cc3nc2C(=O)OCC)cc1)C(=O)OCC (stereo not given)
inactive: A549 > 100 µM | HOP-62 > 100 µM | HOP-92 28.8 µM | Hs-578T 40.8 µM | M14 > 100 µM | MDA-MB-231 41.8 µM | MDA-MB-435 > 100 µM | NCI-H23 > 100 µM | NCI-H460 > 100 µM | OVCAR-3 > 100 µM | OVCAR-8 94.2 µM | SF-295 > 100 µM | SF-539 > 100 µM | SK-MEL-2 23.7 µM | SNB-19 > 100 µM | SR 27.5 µM | TK-10 > 100 µM | U-251 > 100 µM

C=CC1=C(C)c2cc3[nH]c(c4c5nc(cc6[nH]c(cc1n2)c(C=O)c6CC)C(C)=C5C(=O)[C@@H]4C(=O)OC)[C@@H](CCC(=O)O)[C@@H]3C
inactive: A549 > 100 µM | HOP-92 > 100 µM | Hs-578T > 100 µM | IGROV-1 63.5 µM | M14 > 100 µM | MDA-MB-231 28 µM | MDA-MB-435 > 100 µM | NCI-H23 24.7 µM | NCI-H460 > 100 µM | OVCAR-8 53.3 µM | SF-295 45 µM | SF-539 39.6 µM | SK-MEL-2 > 100 µM | SNB-19 > 100 µM | SR 10 µM | TK-10 > 100 µM | U-251 9.25 µM

Cc1c[nH]c(C(=O)O)c1-c1cccn1-c1ccc(Cl)cc1[N+](=O)[O-]
inactive: A549 83.4 µM | HOP-62 63.2 µM | HOP-92 56 µM | Hs-578T > 100 µM | IGROV-1 36.3 µM | M14 > 100 µM | MDA-MB-231 > 100 µM | MDA-MB-435 > 100 µM | NCI-H23 > 100 µM | NCI-H460 > 100 µM | OVCAR-3 11.8 µM | OVCAR-8 61.7 µM | SF-295 73.8 µM | SF-539 > 100 µM | SK-MEL-2 > 100 µM | SR 99.3 µM | TK-10 > 100 µM | U-251 > 100 µM

Source: ChEMBL document CHEMBL1201862, “PubChem BioAssay data set” (2004)
